Reference: patent publication US10624852B2, “Liposomes comprising a calcium phosphate-containing precipitate” (The University of North Carolina at Chapel Hill, priority 2009, dated 2020)
Non-standard residues stand in square brackets, D forms with d. No end group written: not given here. pY = N[C@@H](Cc1ccc(OP(=O)(O)O)cc1)C(=O)O

Legend:
H-460 cells = test: Calcium release in live cells (Fura-2 imaging); format: cell-based, human; conditions: 20 μM cytochalasin D, cells with LCP nanoparticles
Procedure: Two μl of 2 mM Fura-2 AM and 2 μl of 20% Pluronic-127 were mixed for 5 min and added to 1 ml phenol red free DMEM cell culture medium before use. About 5×10^4 H-460 cells were incubated in a Lab-Tek 8-well glass chamber slide system (Fisher, Pittsburgh, Pa.) for 24 h. Two hundred μl of a 2 μM Fura-2 AM solution was added to the cell culture chamber, followed by a 50 min incubation. After washing two times with PBS, the cells were incubated in phenol red-free DMEM cell culture medium and imaged with a Nikon TE2000U microscope and OrcaER camera. Emission was monitored at 510 nm with an alternating excitation wavelength of 340 nm and 380 nm from a Xenon light source. After adding 50 μl of LCP nanoparticles, fluorescence image was obtained by setting the excitation wavelength at 340 nm for green color and 380 nm for red color. The ratio of 340 nm/380 nm was proportional to the intracellular free Ca^2+ concentration (Hirst et al. (1999) Methods Mol Biol 114:31-39). All experiments were performed at room temperature.
To study the inhibition of endocytosis, 20 mM cytochalasin D was prepared in DMSO solution and freshly diluted 1,000 times by phenol red-free DMEM medium for use. After incubating with Fura-2 AM for 60 min and 20 μM cytochalasin D for 5 min, cells were imaged as described in the presence of LCP nanoparticles.

[1] = Trapping / encapsulation efficiency; format: physicochemical; conditions: cargo encapsulated in LCP-II
Procedure: To […] calculate the trapping efficiency of siRNA in the LCP nanoparticles, the anti-luciferase siRNA was replaced with a carboxyfluoroscein (FAM)-labeled siRNA having the same sequence (Dharmacon Inc, Lafayette, Colo.). The FAM-labeled siRNA LCP nano-particles were dissolved in lysis buffer (2 mM EDTA and 0.05% Trixton-100 in pH 7.8 Tris buffer) for quantitative analysis of the siRNA encapsulation efficiency. Standard siRNA solutions were prepared by diluting the FAM-labeled siRNA in the same lysis buffer. Then, 100 μl of the standard siRNA solution or the LCP solution was added to a 96-well plate and the fluorescence intensity was measured at 525 nm with a plate reader (Plate Chameleon Multilabel Detection Platform, Bioscan Inc., Washington D.C.). The amount of entrapped siRNA in the LCP nanoparticles was calculated based on the standard calibration curve.

In the case of `C=C1[C@@H](C)[C@H]2[C@H](Cc3ccccc3)NC(=O)[C@]23[C@H](OC(C)=O)/C=C/[C@@](C)(O)C(=O)[C@@H](C)C/C=C/[C@H]3[C@@H]1O` [cytochalasin D], the “effect on LCP-induced color change (endocytosis inhibition)” value (H-460 cells) is reported as “significantly reduced the color change”.

For `O=C([O-])c1ccccc1-c1c2ccc(=O)cc-2oc2cc([O-])ccc12.[Na+].[Na+]` [sodium fluorescein, reference compound], the “trapping efficiency in LCP-II nanoparticles” value (from here on “trapping efficiency”) [1] was “about 40%”.

With `Nc1ccn([C@@H]2O[C@H](COP(=O)(O)O)[C@@H](O)[C@@H]2O)c(=O)n1` [AraC monophosphate] the “trapping efficiency” value [1] was “about 94%”.

In the case of `Nc1ccn(C2OC(COP(=O)(O)O)[C@H](O)C2(F)F)c(=O)n1` (some centres unmarked) [gemcitabine monophosphate, Gemcitabine monophosphate], the “trapping efficiency” value [1] is reported as ~88%.

With “EEEEpYFELV (EEEE[pY]FELV) [peptide wherein the tyrosine (Y) is phosphorylated]” the “trapping efficiency” value [1] was ~82%.
